Earlier results in patent publication US20130059872A1, “POLYMORPHS OF ALOGLIPTIN BENZOATE” (MAPI PHARMA LIMITED, priority 2010, published 2013).

Conditions: DSC data according to WO 2007/035372; recrystallization at 132° C., melt onset at 183° C.

SMILES: Cn1c(=O)cc(N2CCC[C@@H](N)C2)n(Cc2ccccc2C#N)c1=O [amorphous form 1 of WO 2007/035372, alogliptin benzoate]
- solid-state stability of the amorphous phase on heating: crystallized to crystalline form A during heating
